Assay results from US20060286608A1, “Method for screening transglutaminase 2 inhibitor or activator” (priority 2005, published 2006).

Tests used:
[1] = test system: TGase 2; conditions: microglia after 24 hours of exposure to LPS; previous study (Park et al. 2004); cited from earlier work
[2] = test system: iNOS; experiment: Semi-quantitative RT-PCR of mouse iNOS in BV-2 cells; type: cell-based; conditions: BV-2 cells treated with LPS
Description: (§1) Semi-quantitative RT-PCR was performed using competitive mimic templates as internal controls. To prepare total RNA for RT-PCR, the cells were lysed with a TRIzol reagent. Samples of the total RNA were reverse-transcribed at 42° C. using the first strand synthesis kit (Promega) with avian myeloblastosis virus reverse transcriptase, and PCR was performed for the transcripts of iNOS and TGase 2 using corresponding specific primer sets. For each PCR, 1.5 mM MgCl2, 200 μM dNTP, 0.2 μM of each primer, 0.5 unit Taq polymerase, and a predetermined amount of a template were contained in a volume of 20 μl. The mimic templates of TGase 2 and iNOS were constructed by PCR. The mimics of mouse TGase 2 and mouse iNOS were prepared from 2014-2338 bp and 1451-2043 bp, respectively. RT-PCR products thus obtained were 526 bp for target TGase 2, 345 bp for mimic TGase 2, 593 bp for target iNOS, and 345 bp for mimic iNOS. For the RT-PCR, a primer set of SEQ. ID. NOS. 1 and 2, and a primer set of SEQ. ID. NOS.

[3] = test system: BV-2 microglia; experiment: Nitric oxide measurement (Griess reaction) in LPS-activated BV-2 microglia; type: cell-based, murine; conditions: BV-2 microglia, after 24 hours of LPS treatment (100 μg/ml)
Description: (§2) The BV-2 cells were grown and maintained in DMEM (Dulvecco's modified Eagle's medium) (Invitrogen) supplemented with 10% FCS (fetal calf serum) and penicillin/streptomycin at 37° C. in a humidified incubator under 5% CO2. To activate BV-2, the cells were treated with LPS (100 μg/ml; Sigma) for 24 hours. After LPS treatment for 24 hours with or without inducible nitric-oxide synthase(iNOS) inhibitor, 0, 50, and 100 μM N^G-monomethyl-L-arginine(L-NMMA) (Sigma), proteins were extracted with radioimmunoprecipitation assay buffer (1× phosphate-buffered saline (PBS), 1% Nonidet P-40, 0.5% sodium deoxycholate and 0.1% SDS) containing protease inhibitors from BV-2 harvest, followed by analysis for TGase 2 activity.
Accumulated nitric oxide was measured in the cell supernatant after LPS treatment for 24 hours by Griess reaction. A 200 μl aliquot of the cell supernatant in each well of a 96-well microtiter plate was mixed with 100 μl of the Griess reagent [1% sulfanilamide (Fluka), 0.1% naphthylethylenediamine dihydrochloride (Fluka), 2.5% H3PO4], and the absorbance was read at 540 nm using a plate reader.

[4] = test system: TGase 2; experiment: TGase activity assay in LPS-activated BV-2 microglia; type: cell-based, murine; conditions: BV-2 microglia, after 24 hours of LPS treatment (100 μg/ml)
Description: as §2
Enzymatic activity was determined using a modified TGase assay method for measuring the incorporation of [1,4-^14C] putrescine into succinylated casein.

[5] = test system: TGase 2; experiment: Immunohistochemical staining of TGase 2 in rat brain after LPS injection; type: in vivo; conditions: rats killed 1 hour after peritoneal injection of 2.5 mg/kg LPS, compared with saline alone
Description: Male Sprague-Dawley rats (Samtako, Osan, Korea) weighing 190-220 g were used as experimental models for intraperitoneal LPS injection as described previously. All experimental procedures were approved by the Seoul National University Care of Experimental Animals Committee. A solution of LPS (2.5 mg/kg) in 0.9% saline or 0.9% sterile saline was intraperitoneally injected into rats. To determine the effect of TGase inhibitors, rats were intraperitoneally injected with an R2 peptide (25 μM), an E2 peptide (25 μM, and dexamethasome (1 mg/kg) at 30 min before and at the time of LPS injection. Dexamethasome injection was used as a positive control.
After 1 hour of intraperitoneal injection with LPS or saline, rats were anesthetized with 1% ketamine (30 mg/kg) and xylazine hydrochloride (4 mg/kg). Brains were perfused through the heart with saline containing 0.5% sodium nitrite and 10 units/ml heparin, followed by perfusion with 4% paraformaldehyde in PBS (0.1 M, pH 7.2). Brains were removed, rinsed with PBS, and cryoprotected in sucrose. Sections were prepared on a sliding microtome (40 μm) at the level of the subfornical organ. A monoclonal antibody (TG-100; NeoMarkers) to TGase 2 was used to subject TGase 2 to immunohistochemical staining. Brain sections were blocked with 1% BSA in PBS and incubated overnight with a primary antibody solution (1:200 dilution). […]

[6] = test system: TGase 2; experiment: Semi-quantitative RT-PCR of mouse TGase 2 in BV-2 cells; type: cell-based; conditions: BV-2 cells treated with LPS
Description: as §1

Substance: lipopolysaccharide [LPS]
- TGase activity, increase [1]: about 5 fold
- iNOS by RT-PCR, increase [2]: 10 fold
- release of NO, increase [3]: 10 fold
- TGase 2 activity, increase [4]: 5 fold
- TGase 2 expression in brains [5]: increased
- TGase 2 by RT-PCR, increase [6]: 3 fold
